Test results reported in patent publication US20040018941A1, “Fused-benzene derivatives of thiouracil, herbicidal and desiccant compositions contaning them” (ISHIHARA SANGYO KAISHA, LTD., priority 2002, published 2004).

Legend:
Format in all cases: in vivo
Settings in all cases: rating 0-100 (0 no damage, 100 complete death), 14 days after application
[1] = tested on: velvetleaf (Abutilon theophrasti, ABUTH); assay: Pre-emerge herbicidal activity, greenhouse screen, ABUTH
Text: (§1) A standard greenhouse herbicide activity screening system was used to evaluate the herbicidal efficacy and crop safety of these test compounds. Seven broadleaf weed species including redroot pigweed (Amaranthus retroflexus, AMARE), velvetleaf (Abutilon theophrasti, ABUTH), sicklepod (Cassia obtusifolia, CASOB), ivyleaf morningglory (Ipomoea hederacea, IPOHE), lambsquarters (Chenopodium album, CHEAL), common ragweed (Ambrosia artemisiifolia L., AMBEL), and cocklebur (Xanthium strumarium, XANST) were used as test species. Four grass weed species including green foxtail (Setaria viridis, SETVI), barnyardgrass (Echinochloa crus-galli, ECHCG), johnsongrass (Sorghum halepense, SORHA), and large crabgrass (Digitaria sanguinalis, DIGSA) were also used. In addition, three crop species, field corn (Zea mays L., var. Dekalb 527, CORN), soybean (Glycine max L., var. Pella 86, SOY), and upland rice (Oryza sp., var. Tebonnet, RICE) were included.
(§2) All plants were grown in 10 cm square plastic pots which were filled with a sandy loam soil mix. For pre-emerge tests, seeds were planted one day prior to application of the test compounds. For post-emerge tests, seeds were planted 8-21 days prior to the test to allow emergence and good foliage development prior to application of the test substances. At the time of the post-emerge application, plants of all species were usually at the 2-3 leaf stage of development.
(§3) All test compounds were dissolved in acetone and applied to the test units in a volume of 187 l/ha. Test materials were applied at rates ranging from 15 g ai/ha to 1000 g ai/ha using a track sprayer equipped with a TJ8001 E even flow flat fan spray nozzle. Plants were arranged on a shelf so that the top of the canopy (post-emerge) or top of the soil surface (pre-emerge) was 40-45 cm below the nozzle. Pressurized air was used to force the test solution through the nozzle as it was mechanically advanced over the top of all test plants/pots. This application simulates a typical commercial field herbicide application.
(§4) In the post-emerge test, a commercial non-ionic surfactant was also included (0.25% v/v) to enhance wetting of the leaf surfaces of target plants. Immediately after application, test units of the pre-emerge applications were watered at the soil surface to incorporate the test materials.
(§5) At 14 days after application of the test materials, phytotoxicity ratings were recorded. A rating scale of 0-100 was used as previously described in Research Methods in Weed Science, 2nd edition, B. Truelove, Ed., Southern Weed Science Society, Auburn University, Auburn, Ala., 1977. Briefly, “0” corresponds to no damage and “100” corresponds to complete death of all plants in the test unit. This scale was used both to determine efficacy against weed species and damage to crop species. Herbicide activity data for various compounds of this invention, which are shown by compound No. in Tables 1-7, are shown in Tables 8 and 9.

[2] = tested on: sicklepod (Cassia obtusifolia, CASOB); assay: Post-emerge herbicidal activity, greenhouse screen, CASOB
Text: as §1, §2, §3, §4, §5

[3] = tested on: field corn (Zea mays L., var. Dekalb 527, CORN); assay: Pre-emerge crop damage, greenhouse screen, CORN
Text: as §1, §2, §3, §4, §5

[4] = tested on: barnyardgrass (Echinochloa crus-galli, ECHCG); assay: Post-emerge herbicidal activity, greenhouse screen, ECHCG
Text: as §1, §2, §3, §4, §5

[5] = tested on: johnsongrass (Sorghum halepense, SORHA); assay: Pre-emerge herbicidal activity, greenhouse screen, SORHA
Text: as §1, §2, §3, §4, §5

[6] = tested on: lambsquarters (Chenopodium album, CHEAL); assay: Pre-emerge herbicidal activity, greenhouse screen, CHEAL
Text: as §1, §2, §3, §4, §5

[7] = tested on: large crabgrass (Digitaria sanguinalis, DIGSA); assay: Pre-emerge herbicidal activity, greenhouse screen, DIGSA
Text: as §1, §2, §3, §4, §5

[8] = tested on: barnyardgrass (Echinochloa crus-galli, ECHCG); assay: Pre-emerge herbicidal activity, greenhouse screen, ECHCG
Text: as §1, §2, §3, §4, §5

[9] = tested on: ivyleaf morningglory (Ipomoea hederacea, IPOHE); assay: Pre-emerge herbicidal activity, greenhouse screen, IPOHE
Text: as §1, §2, §3, §4, §5

[10] = tested on: large crabgrass (Digitaria sanguinalis, DIGSA); assay: Post-emerge herbicidal activity, greenhouse screen, DIGSA
Text: as §1, §2, §3, §4, §5

[11] = tested on: green foxtail (Setaria viridis, SETVI); assay: Pre-emerge herbicidal activity, greenhouse screen, SETVI
Text: as §1, §2, §3, §4, §5

[12] = tested on: field corn (Zea mays L., var. Dekalb 527, CORN); assay: Post-emerge crop damage, greenhouse screen, CORN
Text: as §1, §2, §3, §4, §5

[13] = tested on: green foxtail (Setaria viridis, SETVI); assay: Post-emerge herbicidal activity, greenhouse screen, SETVI
Text: as §1, §2, §3, §4, §5

[14] = tested on: upland rice (Oryza sp., var. Tebonnet, RICE); assay: Pre-emerge crop damage, greenhouse screen, RICE
Text: as §1, §2, §3, §4, §5

[15] = tested on: upland rice (Oryza sp., var. Tebonnet, RICE); assay: Post-emerge crop damage, greenhouse screen, RICE
Text: as §1, §2, §3, §4, §5

[16] = tested on: lambsquarters (Chenopodium album, CHEAL); assay: Post-emerge herbicidal activity, greenhouse screen, CHEAL
Text: as §1, §2, §3, §4, §5

[17] = tested on: ivyleaf morningglory (Ipomoea hederacea, IPOHE); assay: Post-emerge herbicidal activity, greenhouse screen, IPOHE
Text: as §1, §2, §3, §4, §5

[18] = tested on: sicklepod (Cassia obtusifolia, CASOB); assay: Pre-emerge herbicidal activity, greenhouse screen, CASOB
Text: as §1, §2, §3, §4, §5

[19] = tested on: redroot pigweed (Amaranthus retroflexus, AMARE); assay: Post-emerge herbicidal activity, greenhouse screen, AMARE
Text: as §1, §2, §3, §4, §5

[20] = tested on: common ragweed (Ambrosia artemisiifolia L., AMBEL); assay: Pre-emerge herbicidal activity, greenhouse screen, AMBEL
Text: as §1, §2, §3, §4, §5

[21] = tested on: common ragweed (Ambrosia artemisiifolia L., AMBEL); assay: Post-emerge herbicidal activity, greenhouse screen, AMBEL
Text: as §1, §2, §3, §4, §5

[22] = tested on: johnsongrass (Sorghum halepense, SORHA); assay: Post-emerge herbicidal activity, greenhouse screen, SORHA
Text: as §1, §2, §3, §4, §5

[23] = tested on: soybean (Glycine max L., var. Pella 86, SOY); assay: Post-emerge crop damage, greenhouse screen, SOY
Text: as §1, §2, §3, §4, §5

[24] = tested on: soybean (Glycine max L., var. Pella 86, SOY); assay: Pre-emerge crop damage, greenhouse screen, SOY
Text: as §1, §2, §3, §4, §5

[25] = tested on: velvetleaf (Abutilon theophrasti, ABUTH); assay: Post-emerge herbicidal activity, greenhouse screen, ABUTH
Text: as §1, §2, §3, §4, §5

[26] = tested on: redroot pigweed (Amaranthus retroflexus, AMARE); assay: Pre-emerge herbicidal activity, greenhouse screen, AMARE
Text: as §1, §2, §3, §4, §5

With `Cc1nc2c(Cl)cc(F)c(-n3c(=O)cc(C(F)(F)F)n(C)c3=S)c2o1` [Compound 1-2] the “Pre-emerge Herbicidal Activity ABUTH” value ([1]; 63 g ai/ha) was 100, the “Pre-emerge Herbicidal Activity ABUTH” value ([1]; 250 g ai/ha) was 100 and the “Post-emerge Herbicidal Activity CASOB” value ([2]; 63 g ai/ha) was 100. For the same molecule, the “Post-emerge Herbicidal Activity CASOB” value ([2]; 250 g ai/ha) was 100, the “Pre-emerge Herbicidal Activity CORN (crop damage)” value ([3]; 63 g ai/ha) was 100 and the “Pre-emerge Herbicidal Activity CORN (crop damage)” value ([3]; 250 g ai/ha) was 100. For the same molecule, the “Post-emerge Herbicidal Activity ECHCG” value ([4]; 63 g ai/ha) was 100, the “Post-emerge Herbicidal Activity ECHCG” value ([4]; 250 g ai/ha) was 100 and the “Pre-emerge Herbicidal Activity SORHA” value ([5]; 63 g ai/ha) was 100. The “Pre-emerge Herbicidal Activity SORHA” value ([5]; 250 g ai/ha) was 100, the “Pre-emerge Herbicidal Activity CHEAL” value ([6]; 63 g ai/ha) was 100 and the “Pre-emerge Herbicidal Activity CHEAL” value ([6]; 250 g ai/ha) was 100. For the same molecule, the “Pre-emerge Herbicidal Activity DIGSA” value ([7]; 63 g ai/ha) was 100, the “Pre-emerge Herbicidal Activity DIGSA” value ([7]; 250 g ai/ha) was 100 and the “Pre-emerge Herbicidal Activity ECHCG” value ([8]; 63 g ai/ha) was 100. The “Pre-emerge Herbicidal Activity ECHCG” value ([8]; 250 g ai/ha) was 100, the “Pre-emerge Herbicidal Activity IPOHE” value ([9]; 63 g ai/ha) was 100 and the “Pre-emerge Herbicidal Activity IPOHE” value ([9]; 250 g ai/ha) was 100. For the same molecule, the “Post-emerge Herbicidal Activity DIGSA” value ([10]; 63 g ai/ha) was 99, the “Post-emerge Herbicidal Activity DIGSA” value ([10]; 250 g ai/ha) was 100 and the “Pre-emerge Herbicidal Activity SETVI” value ([11]; 63 g ai/ha) was 100. For the same molecule, the “Pre-emerge Herbicidal Activity SETVI” value ([11]; 250 g ai/ha) was 100, the “Post-emerge Herbicidal Activity CORN (crop damage)” value ([12]; 63 g ai/ha) was 25 and the “Post-emerge Herbicidal Activity CORN (crop damage)” value ([12]; 250 g ai/ha) was 35. For the same molecule, the “Post-emerge Herbicidal Activity SETVI” value ([13]; 63 g ai/ha) was 100, the “Post-emerge Herbicidal Activity SETVI” value ([13]; 250 g ai/ha) was 100 and the “Pre-emerge Herbicidal Activity RICE (crop damage)” value ([14]; 63 g ai/ha) was 99. The “Pre-emerge Herbicidal Activity RICE (crop damage)” value ([14]; 250 g ai/ha) was 100, the “Post-emerge Herbicidal Activity RICE (crop damage)” value ([15]; 63 g ai/ha) was 75 and the “Post-emerge Herbicidal Activity RICE (crop damage)” value ([15]; 250 g ai/ha) was 80. The “Post-emerge Herbicidal Activity CHEAL” value ([16]; 63 g ai/ha) was 100, the “Post-emerge Herbicidal Activity CHEAL” value ([16]; 250 g ai/ha) was 100 and the “Post-emerge Herbicidal Activity IPOHE” value ([17]; 63 g ai/ha) was 100. The “Post-emerge Herbicidal Activity IPOHE” value ([17]; 250 g ai/ha) was 100, the “Pre-emerge Herbicidal Activity CASOB” value ([18]; 63 g ai/ha) was 100 and the “Pre-emerge Herbicidal Activity CASOB” value ([18]; 250 g ai/ha) was 100. For the same molecule, the “Post-emerge Herbicidal Activity AMARE” value ([19]; 63 g ai/ha) was 100, the “Post-emerge Herbicidal Activity AMARE” value ([19]; 250 g ai/ha) was 100 and the “Pre-emerge Herbicidal Activity AMBEL” value ([20]; 63 g ai/ha) was 100. The “Pre-emerge Herbicidal Activity AMBEL” value ([20]; 250 g ai/ha) was 100, the “Post-emerge Herbicidal Activity AMBEL” value ([21]; 63 g ai/ha) was 100 and the “Post-emerge Herbicidal Activity AMBEL” value ([21]; 250 g ai/ha) was 100. For the same molecule, the “Post-emerge Herbicidal Activity SORHA” value ([22]; 63 g ai/ha) was 100, the “Post-emerge Herbicidal Activity SORHA” value ([22]; 250 g ai/ha) was 100 and the “Post-emerge Herbicidal Activity SOY (crop damage)” value ([23]; 63 g ai/ha) was 100. For the same molecule, the “Post-emerge Herbicidal Activity SOY (crop damage)” value ([23]; 250 g ai/ha) was 100, the “Pre-emerge Herbicidal Activity SOY (crop damage)” value ([24]; 63 g ai/ha) was 100 and the “Pre-emerge Herbicidal Activity SOY (crop damage)” value ([24]; 250 g ai/ha) was 100. For the same molecule, the “Post-emerge Herbicidal Activity ABUTH” value ([25]; 63 g ai/ha) was 100, the “Post-emerge Herbicidal Activity ABUTH” value ([25]; 250 g ai/ha) was 100 and the “Pre-emerge Herbicidal Activity AMARE” value ([26]; 63 g ai/ha) was 100. The “Pre-emerge Herbicidal Activity AMARE” value ([26]; 250 g ai/ha) was 100.
